# Measured values as given in patent publication US20080102476A1, “Analyzing Histamine H4 Receptor-Mediated Effects In Whole Blood” (priority 2003, published 2008).
# Like-named read-outs stand apart in the source and are kept apart here.
# B1: eotaxin-2: chemokine, positive control in the whole blood assay (protein, UniProt O00175 27-119, looked up)
# C-C motif chemokine 24: VVIPSPCCMFFVSKRIPENRVVSYQLSSRSTCLKAGVIFTTKKGQQFCGDPKQEWVQRYMKNLDAKQKKASPRARAVAVKGPVQRYPGNQTTC
# What was measured:
# [1] = tested on: eosinophils in human whole blood; test: Whole blood eosinophil shape change GAFS assay (Example 1A); type: cell-based; conditions: for agonist effect on eosinophil shape change in whole blood: FIGS. 9A and 9B
# Experimental: Starting materials were obtained as described in the experiments above. Human whole blood samples were used to study eosinophil shape change response. Human blood samples collected from healthy donors were treated with 3.8% tri-sodium citrate as anti-coagulator (or other anti-coagulators) and centrifuges at 300 rpm. The samples were used for experiments within 1 hour. Aliquots of 80 μl whole blood were pretreated with histamine receptor analogues (such as H1 receptor antagonist diphenhydramine, H2 antagonist ranitidine, H4 receptor antagonists thioperamide and Compound A, and H3 receptor antagonist Compound B) for 10 minutes before addition of histamine or chemokines in 1.2-ml polypropylene cluster tubes (Costar, Cambridge, Mass.) in a final volume of 100 μl. The tubes were placed in a 37° C. water bath for 10 min, after which they were transferred to an ice-water bath, and 250 μl of ice-cold fixative (2% paraformaldehyde in PBS or other fixatives) was added to terminate the reaction and to maintain the cell shape change. Red cells were lysed with 3 ml Qiagen lysis solution (Qiagen, Valencia, Calif.) for 10 minutes at 4° C. Leukocytes were recovered by centrifugation at 2000 rpm for 5 minutes, washed once with either PBS containing 10 mM Ca^2+ and Mg^2+, 10 mM HEPES, 10 mM glucose, and 0.1% BSA (for FIGS. 10 and 11) or PBS containing 0.5% BSA and 2 mM EDTA (for other figures), and then resuspended in the same buffer. The cell shape change was analyzed on a FACScan flow cytometer (Becton Dickinson, Mountain View, Calif.). Eosinophils were gated based on their high autofluorescence relative to neutrophils and shape change was monitored in forward scatter signals. Data were acquired for 1500 high-fluorescence eosinophil events. The results are expressed as the percentage increase in FSC compared to unstimulated cells. Results obtained are provided in the Tables I and II, below, which also correspond to FIG. 7 and FIG. 8, respectively.
# [2] = tested on: human eosinophils; test: Eosinophil shape change in human PMNL by flow cytometry (GAFS assay); type: cell-based; conditions: for IC50: Homo sapiens, Eosinophil, 1 μM histamine, FIG. 4B; for effect on histamine-induced eosinophil shape change: antagonist 10 μM, 1 μM histamine 10 min; for agonist effect on eosinophil shape change: FIG. 4C; for EC50: FIG. 3D
# Experimental: PMNL were prepared as described above and cells were resuspended in assay buffer (PBS containing 10 mM Ca^2+ and Mg^2+, 10 mM HEPES, 10 mM glucose, and 0.1% BSA, pH 7.2-7.4). Aliquots of cells (5×10^5 PMNL in 80 μl assay buffer) were pretreated with histamine receptor analogues (diphenhydramine, ranitidine, thioperamide, Compound A or H3 receptor antagonist) for 10 min at room temperature before addition of histamine or chemokines in 1.2-ml polypropylene cluster tubes (Costar, Cambridge, Mass.) in a final volume of 100 μl. The tubes were placed in a 37° C. water bath for 10 min (or as indicated), after which they were transferred to an ice-water bath, and 250 μl of ice-cold fixative (2% paraformaldehyde in PBS) was added to terminate the reaction and to maintain the cell shape change. […] Cell shape change was monitored in forward scatter signals. To identify eosinophils and neutrophils in PMNL, cells were stained on ice for 30 min with saturating concentrations of FITC-conjugated anti-CCR3 or anti-CD16 antibodies, which are specific for eosinophils or neutrophils, respectively. Samples after antibody staining were analyzed in flow cytometry.
# [3] = tested on: purified human eosinophils; test: In vitro eosinophil chemotaxis assay (Transwell); type: cell-based; conditions: for IC50: 1 μM histamine in lower chamber, read-out: IC50 in blocking 1 μM histamine-induced eosinophil chemotaxis; for effect on histamine-induced eosinophil chemotaxis: antagonist 10 μM in both chambers; for EC50: 2 h
# Experimental: Transwells (Costar, Cambridge, Mass.) with 5 μm pore size were coated with 100 μl of 100 ng/ml human fibronectin (Sigma) for 2 h at room temperature. After removal of excess fibronectin, 600 μl of RPMI-1640 medium containing 0.5% BSA and different concentrations of histamine (0.01-100 μM) was added to the bottom chamber, Eosinophils (2×10^5/well) were added to the top chamber. Histamine receptor analogues (diphenhydramine, ranitidine, thioperamide, Compound A or Compound B) were added to both the top and bottom chambers to a final concentration of 10 μM or at other concentration as stated in figure legends. The plates were incubated for 2 h at 37° C. and the number of cells migrated to the bottom chamber was counted for 1 min using flow cytometer.
# [4] = tested on: eosinophils in human whole blood; test: Whole blood eosinophil shape change assay with ranitidine co-treatment (Example 1B); type: cell-based; conditions: FIG. 11
# Experimental: In this example, starting materials were obtained as described in Example 1A. Human whole blood samples were used to study eosinophil shape change response. Human blood samples collected from healthy donors were treated with 3.8% tri-sodium citrate as anti-coagulator (or other anti-coagulators) and centrifuges at 300 rpm. The samples were used for experiments within 1 hour. […] The cell shape change was analyzed on a FACScan flow cytometer (Becton Dickinson, Mountain View, Calif.). Eosinophils were gated based on their high autofluorescence relative to neutrophils and shape change was monitored in forward scatter signals. Data were acquired for 1500 high-fluorescence eosinophil events. Results are expressed as the percentage increase in FSC compared to unstimulated cells.
# [5] = tested on: human eosinophils; test: Cell surface expression of adhesion molecules on eosinophils by flow cytometry; type: cell-based; conditions: for effect on histamine-induced up-regulation of CD11b/CD18 and CD54 expression: antagonist 10 μM
# Experimental: Purified eosinophils were used to study cell surface expression of adhesion molecules. Eosinophils were resuspended in PBS containing 10 mM Ca^2+ and Mg^2+, 10 mM HEPES, 10 mM glucose, and 0.1% BSA, pH 7.2-7.4. Aliquots of cells (5×10^5 PMNL) were pretreated with histamine receptor analogues (as described above) for 10 min before addition of histamine or chemokines in 1.2-ml polypropylene cluster tubes (Costar, Cambridge, Mass.) in a final volume of 100 μl. The tubes were placed in a 37° C. water bath for 10 min (or as indicated), after which they were transferred to an ice-water bath, and 250 μl of ice-cold fixative (0.5% paraformaldehyde in PBS) was added. Samples were then incubated on ice for 30 min with saturating concentration of either FITC or phycoerytherine-conjugated anti-CD11a, anti-CD11b or anti-CD54 antibodies, washed, and then analyzed by flow cytometry.
# [6] = tested on: human neutrophils; conditions: 1 μM, 10 min
# Experimental: Human PMNL samples were used to study eosinophil shape change response. PMNL were prepared as described above and cells were resuspended in assay buffer (PBS containing 10 mM Ca^2+ and Mg^2+, 10 mM HEPES, 10 mM glucose, and 0.1% BSA, pH 7.2-7.4). Aliquots of cells (5×10^5 PMNL in 80 μl assay buffer) were pretreated with histamine receptor analogues (diphenhydramine, ranitidine, thioperamide, Compound A or H3 receptor antagonist) for 10 min at room temperature before addition of histamine or chemokines in 1.2-ml polypropylene cluster tubes (Costar, Cambridge, Mass.) in a final volume of 100 μl. […] The cell shape change was analyzed with the flow cytometer (Becton Dickinson, Mountain View, Calif.). […] Cell shape change was monitored in forward scatter signals. […] Samples after antibody staining were analyzed in flow cytometry.
# The analysis of eosinophil cell shape change by flow cytometry, known as gated autofluorescence forward scatter (GAFS) assay, allows a quantitative measurement of cell shape change induced by chemoattractants (Sabroe et al., 1999, “Differential regulation of eosinophil chemokine signaling via CCR3 and non-CCR3 pathways,” J. Immunol., 162, 2946-2955). […]
# [7] = cited from earlier work
# [8] = tested on: human eosinophils; conditions: cited from earlier work
# [9] = histamine 0.1 uM + compound A 10 uM
# [10] = histamine 1 uM + compound A 10 uM
# [11] = histamine 10 uM + compound A 10 uM
# [12] = read-out: IC50 in blocking 1 μM histamine-induced eosinophil shape change
# [13] = histamine 0.1 uM alone, lower part
# [14] = histamine 1 uM alone, lower part
# [15] = histamine 10 uM alone, lower part
# [16] = after histamine treatment, FIG. 3A
molecule,measurement,setting,value
"CN1CCN(C(=O)c2cc3cc(Cl)ccc3[nH]2)CC1 [Compound A, (5-chloro-1H-indol-2-yl)-(4-methyl-piperazin-1-yl)-methanone]",GeoMean (FSC of eosinophils),[1]; histamine 0.00 uM + Compound A 10 uM,268.1
same,% change (increase in FSC compared to unstimulated cells),[1]; histamine 0 uM + compound A 10 uM,0.0%
same,% change (increase in FSC compared to unstimulated cells),[1]; [9],1.5%
same,GeoMean (FSC of eosinophils),[1]; [9],272.1
same,% change (increase in FSC compared to unstimulated cells),[1]; [10],1.1%
same,GeoMean (FSC of eosinophils),[1]; [10],270.9
same,% change (increase in FSC compared to unstimulated cells),[1]; [11],−0.3%
same,GeoMean (FSC of eosinophils),[1]; [11],267.3
same,effect on eosinophil shape changes induced by histamine from 0.1 to 10 μM,"[1]; whole blood, FIG. 8",blocked
same,IC50,[2]; [12],270 nM
same,effect on histamine-induced eosinophil shape change,[2],blocked the histamine-induced eosinophil shape change completely
same,IC50,"[3]; Homo sapiens, Eosinophil",86 nM
same,effect on histamine-induced eosinophil chemotaxis,[3],inhibited completely
same,effect on H4 receptor-dependent shape change (histamine + ranitidine),[4],antagonized
same,effect on histamine-induced up-regulation of CD11b/CD18 and CD54 expression,[5],abolished
CN(C)CCOC(c1ccccc1)c1ccccc1 [diphenhydramine],effect on histamine-induced eosinophil shape change,[2],did not show any inhibitory effects
same,effect on histamine-induced eosinophil chemotaxis,[3],minimal
same,effect on histamine-induced up-regulation of CD11b/CD18 and CD54 expression,[5],ineffective
NC(=NCc1ccc(Cl)cc1)SCCCc1cnc[nH]1 [clobenpropit],agonist effect on eosinophil shape change in whole blood,[1],mimic histamine in inducing eosinophil shape change
same,agonist effect on eosinophil shape change,[2],partial shape change
N=C(N)SCCc1cnc[nH]1 [imetit],agonist effect on eosinophil shape change in whole blood,[1],mimic histamine in inducing eosinophil shape change
same,agonist effect on eosinophil shape change,[2],partial shape change
"NCCc1c[nH]cn1 [histamine, 4-(2-amino-ethyl)imidazole]",% change (increase in FSC compared to unstimulated cells),"[1]; histamine 0.01 uM, upper part",6.1%
same,GeoMean (FSC of eosinophils),"[1]; histamine 0.01 uM, upper part",239.8
same,% change (increase in FSC compared to unstimulated cells),[1]; [13],20.1%
same,GeoMean (FSC of eosinophils),[1]; [13],327.7
same,% change (increase in FSC compared to unstimulated cells),"[1]; histamine 0.1 uM, upper part",20.0%
same,GeoMean (FSC of eosinophils),"[1]; histamine 0.1 uM, upper part",271.3
same,% change (increase in FSC compared to unstimulated cells),[1]; [14],18.0%
same,GeoMean (FSC of eosinophils),[1]; [14],321.9
same,% change (increase in FSC compared to unstimulated cells),"[1]; histamine 1 uM, upper part",16.4%
same,GeoMean (FSC of eosinophils),"[1]; histamine 1 uM, upper part",263.3
same,% change (increase in FSC compared to unstimulated cells),[1]; [15],11.1%
same,GeoMean (FSC of eosinophils),[1]; [15],303.3
same,% change (increase in FSC compared to unstimulated cells),"[1]; histamine 10 uM, upper part",17.2%
same,GeoMean (FSC of eosinophils),"[1]; histamine 10 uM, upper part",265.0
same,% change (increase in FSC compared to unstimulated cells),"[1]; histamine 100 uM, upper part",30.8%
same,GeoMean (FSC of eosinophils),"[1]; histamine 100 uM, upper part",295.8
same,concentration at which a significant eosinophil shape change was detected,"[1]; whole blood, FIG. 7",~0.1 µM
same,cell shape change on neutrophils,[6],no effects
same,cell shape change on eosinophils,"[2]; 1 μM, 10 min",significant cell shape change
same,eosinophil shape change at 100 μM histamine,[2]; 100 μM,no shape change
same,earliest time at which eosinophil shape change is detected,[2]; [16],1 min
same,time of maximal eosinophil shape change,[2]; [16],5 min
same,time of return to the original cell shape,[2]; [16],40 min
same,combined effect on eosinophil shape change,"[2]; histamine combined with MCP-3, sub-optimal concentrations",Partial additive effects
same,optimal concentration for maximal shape change on eosinophils,"[2]; human PMNL, 10 min",~1 µM
same,EC50,[2]; human PMNL,44 nM
same,half-life in serum,[7],around 1 min
same,effect on eosinophil chemotaxis induced by eotaxin-2 and MCP-3,[3]; 0.5 μM histamine,enhanced
same,EC50,"[3]; Homo sapiens, Eosinophil, Transwell",83 nM
same,concentration for maximal chemotactic effect on eosinophils,[3]; Transwell,1 µM
same,nature of the effect on eosinophil migration,[3]; disruption of concentration gradient,chemotactic but not chemokinetic
same,expression of CD11a/CD18 (LFA-1) on eosinophils,[5],not induced
same,optimal concentration for maximal up-regulation of CD11b/CD18 and CD54,[5]; 10-minute stimulation,10 µM
same,cell surface expression of CD11b/CD18 (Mac-1) and CD54 (ICAM-1) on eosinophils,"[5]; 10 min, 37° C.",induced by histamine in a concentration-dependent manner
same,persistence of the increase in cell surface adhesion molecules,[5]; 60 minutes incubation,maintained
MCP-3: chemokine purchased from R&D Systems,EC50,"[2]; human PMNL, chemokines",0.202 nM
same,EC50,[3]; Transwell,43 nM
S=C(NC1CCCCC1)N1CCC(c2cnc[nH]2)CC1 [thioperamide],effect on eosinophil chemotaxis toward histamine,[8],blocked
same,IC50,[2]; [12],128 nM
same,effect on histamine-induced eosinophil shape change,[2],blocked the histamine-induced eosinophil shape change completely
same,IC50,"[3]; Homo sapiens, Eosinophil",519 nM
same,effect on histamine-induced eosinophil chemotaxis,[3],inhibited completely
same,effect on histamine-induced up-regulation of CD11b/CD18 and CD54 expression,[5],abolished
eotaxin: chemokine purchased from R&D Systems,EC50,"[2]; human PMNL, chemokines",0.017 nM
"Cc1ccn2cc(-c3ccc(OCCCN4CCCCC4)cc3)nc2c1 [Compound B, 7-methyl-2-[4-(3-piperidin-1-yl-propoxy)-phenyl]-imidazo[1,2-a]pyridine]",IC50,[2]; read-out: IC50 in blocking 1 μM histamine-induced eosinophil shape change (ineffective up to),> 30000 nM
same,effect on histamine-induced eosinophil shape change,[2],did not show any inhibitory effects
same,effect on histamine-induced eosinophil chemotaxis,[3],minimal
same,effect on histamine-induced up-regulation of CD11b/CD18 and CD54 expression,[5],ineffective
B1,% change (increase in FSC compared to unstimulated cells),[1]; Eotaxin2 0.01 nM,3.5%
same,GeoMean (FSC of eosinophils),[1]; Eotaxin2 0.01 nM,233.4
same,% change (increase in FSC compared to unstimulated cells),[1]; Eotaxin2 0.1 nM,1.0%
same,GeoMean (FSC of eosinophils),[1]; Eotaxin2 0.1 nM,227.7
same,% change (increase in FSC compared to unstimulated cells),[1]; Eotaxin2 1 nM,26.3%
same,GeoMean (FSC of eosinophils),[1]; Eotaxin2 1 nM,284.7
same,% change (increase in FSC compared to unstimulated cells),[1]; Eotaxin2 10 nM,53.4%
same,GeoMean (FSC of eosinophils),[1]; Eotaxin2 10 nM,346.0
same,% change (increase in FSC compared to unstimulated cells),[1]; Eotaxin2 100 nM,19.4%
same,GeoMean (FSC of eosinophils),[1]; Eotaxin2 100 nM,269.3
same,EC50,"[2]; human PMNL, chemokines",0.021 nM
same,EC50,[3]; Transwell,1.9 nM
